Results taken from the METLIN SMRT retention time set (Domingo-Almenara et al. 2019).

Assay: gradient 5% acetonitrile 3 min, to 50% in 2 min, to 85% in 15 min, held 3 min, 100 µL/min
Conditions: column: Zorbax Extend-C18 2.1 x 50 mm; eluents: water / acetonitrile, 0.1% formic acid
Procedure, shortened: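 Standards, all pure, were combined into mixtures of ~100 molecules and run at 100 μL/min on a Zorbax Extend-C18 column (2.1 × 50 mm, 1.8 μm) with water and acetonitrile, each containing 0.1% formic acid. A coupled quadrupole time-of-flight mass spectrometer operated in positive and negative ionization mode. Retention time values come from computationally picked adduct peaks, each inspected manually.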

SMILES | RP-LC retention time [s]
O=C1NCCCCCCN(Cc2ccc(F)cc2F)[C@H]2CCC[C@@H]12 | 646
COc1cc(-c2nc3ncccn3c2Nc2cccc(Cl)c2C)ccc1O | 715
CCCN1C(=O)COc2ccc(-c3csc(NC(C)=O)n3)cc21 | 806
COc1cc(=O)oc(/C=C/C=C/C=C/C(C)=C/C2(C)OC(C)C(C)(O)C2O)c1C (stereo not drawn) | 846
COc1ccccc1NC(=O)C(C)n1nc(C)c2nn(-c3ccccc3)c(-n3cccc3)c2c1=O (stereo not drawn) | 1130
O=C(c1cn[nH]c1)N1CCC(c2nc(CCOCC3CCCC3)no2)C1 (stereo not drawn) | 717
Cc1nc(C)c(C(=O)N2CCC(n3c(C)cnc3C3CCC3)CC2)s1 | 580
COc1ccc(-c2nc3ncccn3c2NCc2ccccc2)cc1OC | 682
CCOc1ccc(-c2noc(CN3N=NC4C(=O)N(c5ccc(F)cc5)C(=O)C43)n2)cc1OC (stereo not drawn) | 936
COCCn1c(SCc2nc(-c3ccc(C)cc3)no2)nc2cc3c(cc2c1=O)OCO3 | 1100
CC(C)Cn1c(CCNC(=O)c2ccccc2F)nc2cccnc21 | 698
Cc1nc2cc(-c3noc(-c4ccc(Cl)cc4)n3)ccc2n(C)c1=O | 872
CCN1C(=O)c2cccc3c(NC(=O)c4ccc(C(=O)OC)cc4)ccc1c23 | 638
Cc1csc(-c2cc(S(=O)(=O)N3CCOCC3)c(C)n2C)n1 | 824
COC(=O)c1[nH]c(C)c(C(=O)CN(CC2CCCO2)C(=O)c2ccc(OC)cc2)c1C (stereo not drawn) | 1030
CN(C)C(=O)c1cc2c(s1)CCC(C(=O)NCc1ccncc1)C2 (stereo not drawn) | 556
O=C(NCC1CCOCC1)c1cccc(Br)c1 | 733
O=C(Cn1cccc1-c1nc(-c2ccc3c(c2)OCO3)no1)Nc1ccccc1Cl | 1100
Cc1ccc(-c2nc3ncc(C#N)c(N)n3n2)cc1 | 707
COc1ccc(-c2noc(C3CC(=O)N(c4cc(C)cc(C)c4)C3)n2)cc1 (stereo not drawn) | 1040
COc1ccc2nc(C(=O)NCc3cccc(Cl)c3)cn2n1 | 846
c1cc(-n2nnc3cnccc32)ccn1 | 637

SMILES | RP-LC retention time [s]
CCC1(C(=O)OC)CCc2c(cc(OC)c3ccccc23)C1=O (stereo not drawn) | 1250
COc1ccc2c(c1)C1(CCN(C(=O)c3cccc(OC)c3OC)C1)C(=O)N2C (stereo not drawn) | 737
CCCCNC(=O)C(C)n1nc(C)c2c(C)n(-c3ccccc3)nc2c1=O (stereo not drawn) | 787
Cc1ccc(NC(=O)CN2C(=O)CN(C)C(=O)c3ccccc32)c(Br)c1 | 734
Nc1nc(S(=O)(=O)Cc2ccccc2)ns1 | 637
Cc1ccc(N2CC(c3nc(-c4ccc5c(c4)nc(C)c(=O)n5C4CCCC4)no3)CC2=O)cc1 (stereo not drawn) | 1100
COc1cccc(S(=O)(=O)N2CCC3(CC2)N(C)C(=O)CS3=O)c1 (stereo not drawn) | 653
O=C(Cn1cnc2c(nnn2-c2ccc(Br)cc2)c1=O)NCc1ccco1 | 776
CSc1cccc(NC(=O)Cn2c(=O)c(CCC(=O)NCC(C)C)nc3ccccc32)c1 | 846
O=C(c1cnccn1)N1CC(c2nc(CCOCC3CC3)no2)C1 | 691
CCOC(=O)c1cc(C2CC2)nc2c1c(=O)n(Cc1cccc(C(F)(F)F)c1)c(=O)n2C | 1270
CCC(=O)Nc1cc2c(cc1N1CCC(C)CC1)n(C)c(=O)c(=O)n2C | 773
Cc1cccc(N2C(=O)CN(CCc3ccccc3)[C@H]3CS(=O)(=O)C[C@H]32)c1 | 826
CCCCN1C(=O)C(CC(=O)NCCC)Sc2ncccc21 (stereo not drawn) | 750
O=C(Cn1ccn2nc(-c3ccccc3)c(CO)c2c1=O)Nc1ccccc1F | 865
Cc1cc(S(=O)(=O)N2CCN(c3cnn4c(C)nnc4c3)CC2)ccc1F | 708
CCC(C)NC(=O)COc1nc(C)nc2onc(-c3cccc(F)c3)c12 (stereo not drawn) | 932
Cc1ccc(CNC(=O)Cn2c(=O)c3nnc(C)n3c3ncccc32)cc1 | 692
Cc1ccccc1-c1nc(-c2ccc3nncn3c2)no1 | 872
COc1cccc(C2Cn3nnc(-c4nc(-c5cccc(C(F)(F)F)c5)no4)c3CO2)c1 (stereo not drawn) | 1270
COc1ccc(C2CC(=O)N(c3ccc(F)cc3)C(=O)C2)cc1OC | 801

Further lines, results first:

RP-LC retention time [s] | SMILES
617 | O=C(NC1CCOCC1)c1ccc(-c2cc(-c3cn[nH]c3-c3ccccn3)ccn2)cc1
598 | O=C(Nc1ccccc1)N1CCc2[nH]cnc2C1c1ccccn1 (stereo not drawn)
634 | CC1(C)CC(=O)C2=C(C1)N(CCCN1CCOCC1)C(=O)C2(NC(=O)c1ccccc1)C(F)(F)F (stereo not drawn)
715 | COC(=O)c1ccc(Cl)cc1NC(=O)N1CCCn2nc(-c3ccncc3)cc2C1
827 | Cc1ccccc1CNC(=O)C1c2ccccc2CC(=O)N1C(C)C (stereo not drawn)
682 | Cc1ccc(Nc2c(-c3ccc(N4CCOCC4)cc3)nc3ccccn23)cc1
678 | O=C(c1cccs1)N1CCC(c2noc(-c3cnccn3)n2)C1 (stereo not drawn)
774 | O=C(NC1CCCc2c1[nH]c1ccc(F)cc21)c1ccncc1 (stereo not drawn)
705 | Cc1ccc(NC(=O)CSc2ccc(N3CCCC(C(=O)NC4CC4)C3)nn2)c(Cl)c1 (stereo not drawn)
737 | Cc1ccc(C2=NC3(CCN(C(=O)c4ccsc4)CC3)ON2)cc1
598 | CCC(C)N1CCN(C(=O)CCc2ccc3c(c2)CN(C(=O)C2CC2)CCO3)CC1 (stereo not drawn)
1110 | Cc1cccc(N2CCN(C(=O)Cn3ccc4ccc(N5CCOCC5)nc43)CC2)c1C
745 | Cc1ccc(CN2CCCC(c3nncn3Cc3ccccc3)C2)o1 (stereo not drawn)
769 | CC(=O)Nc1ccc(C2(C(=O)N3CCCCCC3)CCC2)cc1
645 | COc1cccc(N2C=C(C(=O)N3CCOCC3)S(=O)(=O)c3ccccc32)c1
531 | c1ccc(-c2n[nH]c(C3CCCN(Cc4ccoc4)C3)n2)cc1 (stereo not drawn)
606 | Cc1noc(C)c1CN1CCN(C(=O)C(C)(C)Oc2ccc(Cl)cc2)CC1
937 | Cn1c(=O)c2cc(C(=O)Nc3ccc(F)c(F)c3)cnc2n(-c2ccccc2)c1=O
794 | Cc1nn(CC(=O)NC(C)(C)C)c(C)c1S(=O)(=O)N1CCC(C(=O)N2CCC(C)CC2)CC1
764 | Oc1ccc(-c2nc3ncccn3c2Nc2cccc(C(F)(F)F)c2)cc1
718 | COc1cc(NC(=O)CN2C(=O)COc3ccc(C(=O)N4CCCC4)cc32)cc(OC)c1
608 | O=C(NCc1cccnc1)C1CCN(Cc2cc3ccccc3n2Cc2cccc(F)c2)CC1
773 | CCNC(=O)C1CCCN(C(=O)Nc2ccc(NC(=O)Nc3ccc(CC)cc3)cc2)C1 (stereo not drawn)

RP-LC retention time [s] | SMILES
1120 | O=S(=O)(c1ccc(Br)cc1)N1CCc2nc(-c3ccccc3)ncc2C1
638 | CCOc1ccc(S(=O)(=O)N2CCC3(CC2)CN(C)CC3c2nnc(CC)o2)cc1 (stereo not drawn)
614 | O=C(Nc1ccc(C2(C(=O)N3CCN(c4ccccn4)CC3)CCC2)cc1)C1CC1
639 | O=C(CCCc1ccccc1)NC1CCN(c2nnc3ccc(Cl)cn23)CC1
912 | O=C(Nc1ccccc1Cl)N1CCC(n2c(C(F)(F)F)nc3cccnc32)CC1
709 | CC(C)n1c(N2CCN(C(=O)c3ccccn3)CC2)cc(=O)n(C(C)C)c1=O
711 | Cn1cnc(S(=O)(=O)N2CCCN(S(=O)(=O)Cc3ccccc3)CCNC(=O)CC2c2ccccc2)c1 (stereo not drawn)
642 | COCCN1C(=O)c2ccccc2C(C(=O)NCc2ccccn2)C1c1cccs1 (stereo not drawn)
1320 | Cc1ccc(NC(=O)c2cc(C(C)(C)C)n3nccc3n2)cc1
716 | O=C(Nc1ccc2c(c1)CCCN2C(=O)C1CC1)c1ccccc1[N+](=O)[O-]
736 | COc1ccccc1CNC(=O)C1CCN(C(=O)C2Sc3ccccc3NC2=O)CC1 (stereo not drawn)
1090 | COc1cccc(Cn2c(C(=O)N3CCC(C(=O)NCC4CCCCC4)CC3)cc3ccsc32)c1
697 | CC(C)NC(=O)N1CCC2(CC1)C(=O)N(C)c1ccccc12
752 | CCOCC(=O)N1CCCN(C2=NS(=O)(=O)C(c3ccc(C)cc3)=C2C)CC1
723 | O=C(C1=CCN(Cc2ccc(F)cc2)CC1)N1CCN(c2ccccc2Cl)CC1
745 | COc1ccccc1CNC(=O)Cn1nc2c(N3CCC(C)CC3)nccn2c1=O
738 | COc1ccc(C(=O)NC2CCN(c3cc(-c4ccc(Cl)cc4)[nH]n3)C2)cc1OC (stereo not drawn)
653 | O=C(CCn1cnc2c(cnn2-c2ccccc2)c1=O)N1CCN(C(=O)c2ccco2)CC1
1150 | O=C(Cc1ccccc1Cl)Nc1ccc(-c2nc(-c3ccccc3)co2)cc1
865 | CCC(=O)Nc1ccc(-n2cnc(C(=O)N3CCN(c4ccc(C)cc4C)CC3)c2)nc1
888 | O=S(=O)(c1cc(-c2nnc(-c3ccccc3)o2)ccc1F)N1CCOCC1
552 | O=C(NCc1ccccn1)C1CCc2sc(C(=O)N3CCCCCC3)cc2C1 (stereo not drawn)
